In patent publication US5741917A, “Process for the preparation of acyloxyalkanesulfonates having improved properties” (Hoechst Aktiengesellschaft, priority 1995, dated 1998):

Conditions: deionized water

- Water solubility (maximum concentration giving a clear solution): 10%
Substance: sodium C13 to C15 -acylisethionate [Example 4]
